Converted amounts (≈) assume the structure as drawn.
Assays:
[1] = AUC (0 to infinity) in Japanese healthy volunteer (5 volunteers) at 1000 mg, po by HPLC method; format: ADME, organism-based; design: dose 1000 mg, route oral, time infinity; conditions: human, in vivo
[2] = Apparent volume of distribution in Japanese healthy volunteer (5 volunteers) at 1000 mg, po by HPLC method; format: ADME, organism-based; conditions: human, in vivo
[3] = Cmax in Japanese healthy volunteer (5 volunteers) at 1000 mg, po by HPLC method; format: ADME, organism-based; design: dose 1000 mg, route oral; conditions: human, in vivo
[4] = Tmax in Japanese healthy volunteer (5 volunteers) at 1000 mg, po by HPLC method; format: ADME, organism-based; conditions: human, in vivo
Homo sapiens [5] = assay: AUC (0 to infinity) in Japanese healthy volunteer (5 volunteers) assessed as acetaminophen-cysteine at 1000 mg, po by HPLC method; format: ADME, organism-based; design: dose 1000 mg, time infinity, route oral; conditions: in vivo
Homo sapiens [6] = assay: AUC (0 to infinity) in Japanese healthy volunteer (5 volunteers) assessed as acetaminophen-glucuronide at 1000 mg, po by HPLC method; format: ADME, organism-based; design: dose 1000 mg, time infinity, route oral; conditions: in vivo
Homo sapiens [7] = assay: AUC (0 to infinity) in Japanese healthy volunteer (5 volunteers) assessed as acetaminophen-sulfate at 1000 mg, po by HPLC method; format: ADME, organism-based; design: dose 1000 mg, route oral, time infinity; conditions: in vivo
Homo sapiens [8] = assay: Toxicity in Japanese healthy volunteer (5 volunteers) at 1000 mg, po; format: organism-based; conditions: in vivo
[9] = Apparent volume of distribution in Japanese chronic pain patient (5 patients) at 800 +/- 141 mg, po administered as single dose by fluorescence polarization immunoassay; format: ADME, organism-based; conditions: human, in vivo
Homo sapiens [10] = assay: Analgesic activity in Japanese chronic pain patient (5 patients) assessed as maximum pain relief score at 800 +/- 141 mg, po administered as single dose measured over 15 mins to 6 hrs; format: functional
Homo sapiens [11] = assay: Analgesic activity in po dosed Japanese chronic pain patient (5 patients) assessed as compound dose require to cause 50% maximum pain relief score administered as single dose measured over 15 mins to 6 hrs; format: functional, organism-based
Homo sapiens [12] = assay: Analgesic activity in Japanese chronic pain patient (5 patients) assessed as sigmoid factor at 800 +/- 141 mg, po administered as single dose measured over 15 mins to 6 hrs; format: functional
[13] = Tmax in Japanese chronic pain patient at 600 to 1000 mg, po administered as single dose by fluorescence polarization immunoassay; format: ADME, organism-based; conditions: human, in vivo
Homo sapiens [14] = assay: Toxicity in Japanese chronic pain patient at 600 to 1000 mg, po administered as single dose; format: organism-based; conditions: in vivo
[15] = Drug uptake in Japanese chronic pain patient at 600 to 1000 mg, po administered as single dose after 4 hrs by fluorescence polarization immunoassay; format: ADME, organism-based; conditions: human, in vivo, read-out: Drug uptake
[16] = Drug uptake in human after 4 hrs; format: ADME, organism-based; conditions: in vivo, read-out: Drug uptake
Homo sapiens [17] = assay: Drug metabolism in Japanese healthy volunteer assessed as acetaminophen-cysteine metabolite formation at 1000 mg, po by HPLC method; format: ADME, organism-based; conditions: in vivo
Homo sapiens [18] = assay: Drug level in Japanese healthy volunteer treated with acetaminophen at 1000 mg, po by HPLC method; format: ADME, organism-based; conditions: in vivo

Row | AUC(0-inf) [1] [ng·h/mL] | Vd/F [2] [L] | Cmax [3] [ng/mL] | Tmax [4] [min] | AUC (Homo sapiens [5]) [ng·h/mL] | AUC (Homo sapiens [6]) [ng·h/mL] | AUC (Homo sapiens [7]) [ng·h/mL] | Vd/F [9] [L] | EC50 (Homo sapiens [11]) [µg/mL] | Tmax [13] [min] | concentration at 4 h [15] [ng/mL] | concentration at 4 h [16] [ng/mL] | Drug metabolism (Homo sapiens [17]) [µg/mL] | Drug metabolism (Homo sapiens [18]) | Compound | Activity (Homo sapiens [8]) | Emax (Homo sapiens [10]) | Activity (Homo sapiens [12]) | Activity (Homo sapiens [14])
1 | 77800 | 69.7 | 17700 | 30 | 3700 | 66000 | 21000 | 30.9 | 2 (≈ 13.2 µM) | 30 | 6700 | 120000 | < 0.2 |  | CC(=O)Nc1ccc(O)cc1 [ACETAMINOPHEN] | Non-toxic | 4.6 | 1.3 | Non-toxic
2 |  |  |  |  |  |  |  |  |  |  |  |  |  | metabolite_detected | CC(=O)Nc1ccc(O)c(SC[C@H](N)C(=O)O)c1 |  |  |  | 
